Measured values: ChEMBL document CHEMBL1201862, “PubChem BioAssay data set” (2004)
Calls of active or inactive are those of the source.

How the values were obtained:
[1] = target: T1, Calpain-2 catalytic subunit (Sus scrofa, UniProt P43367); assay: m-calpain protease blockers, concentration series – biochemical, fluorogenic peptide substrate, dose response (AID 1420); type: functional
T1 sequence (P43367 whole entry): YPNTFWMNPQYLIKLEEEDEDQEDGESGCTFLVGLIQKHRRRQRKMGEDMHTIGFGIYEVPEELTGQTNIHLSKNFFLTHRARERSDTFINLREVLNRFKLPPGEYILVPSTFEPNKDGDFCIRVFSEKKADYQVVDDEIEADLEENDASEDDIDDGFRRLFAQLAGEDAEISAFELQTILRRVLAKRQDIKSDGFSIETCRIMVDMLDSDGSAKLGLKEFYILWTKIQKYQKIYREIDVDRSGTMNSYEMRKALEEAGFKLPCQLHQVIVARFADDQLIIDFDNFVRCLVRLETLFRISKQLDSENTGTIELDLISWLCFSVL

[2] = reduction of Shn3 3'UTR-driven luciferase in osteoblasts – cell-based, Clone20 osteoblasts, firefly luciferase, cherry-picked, dose response (AID 624132); type: functional;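 also: firefly luciferase luminescence from reporter carrying the Shn3 3'UTR in osteoblasts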
[3] = non-specific 3'UTR reporter inhibition in Clone20-Shn3RL – cell-based, Renilla luciferase, cherry-picked, counter-screen for Shn3 inhibitor project, dose response (AID 624133); type: functional
[4] = viability of uninfected HEp-2 cells – cell-based, HTS, cytotoxicity control for RSV inhibitor project, dose response (AID 2410); type: functional; settings: human respiratory syncytial virus
Vero = assay: cells; type: functional; settings: Chlorocebus sabaeus
[5] = fluconazole-exposed Candida albicans growth modulators – fluorescence, retest, confirmation (AID 2467); type: functional, cell-based
[6] = NIH-3T3 fibroblast cytotoxicity, dose response, cytotoxicity control, cell-based, fluorescence, Alamar Blue, secondary assay (AID 2327); type: functional;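 also: NIH-3T3 mouse fibroblasts cultured with fluconazole at 8 µg/mL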
[7] = target: Luciferin 4-monooxygenase (Photinus pyralis, UniProt P08659); assay: inhibition of purified Photinus pyralis luciferase – biochemical, luminescence, dose response (AID 1891)
[8] = Luminescence Cell-Based Dose Confirmation HTS to Identify Inhibitors of Platelet Dense Granule Release. [Related pubchem assays: 1663 (Primary HTS), 1678 (Summary of Project)]; type: functional
Fatty acid synthase [9] = target: T2, Fatty acid synthase (Homo sapiens, UniProt P49327); assay: inhibition of human FAS-TE enzyme activity – biochemical, endpoint fluorescence intensity, uHTS hits, dose response (AID 624327); type: functional;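 also: fluorescence from hydrolysis of an O-methyl fluorescein acyl ester substrate by the enzyme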
Fatty acid synthase [10] = target: T2, Fatty acid synthase; assay: inhibition of human FAS-TE enzyme activity – biochemical, kinetic fluorescence intensity, dose response (AID 624326); type: functional;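 also: rate of fluorescence rise from hydrolysis of a fluorogenic O-methyl fluorescein ester substrate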
[11] = target: FAD-linked sulfhydryl oxidase ALR (Homo sapiens, UniProt P55789); assay: ALR-catalysed DTT oxidation blockers – biochemical, H2O2 detection, luminescence, cherry-pick, dose response (AID 493248)
[12] = Luminescence Cell-Based Dose Response HTS to Identify Activators of Luciferase Translation or Activity in H4 […] Cells. [Related pubchem assays: 1829 (Project Summary), 1814 (Primary HTS)]; type: functional
H4 = assay: Luminescence Cell-Based Dose Response HTS to Identify Activators of 5'UTR Stem-Loop Driven Prion Protein mRNA Translation in H4 Neuroglioblastoma Cells. [Related pubchem assays: 1829 (Project Summary), 1814 (Primary HTS)]; type: functional; settings: Homo sapiens
cells [13] = type: functional, cell-based
cells [14] = type: functional, cell-based; remark: listed apart in the source

FAD-linked sulfhydryl oxidase ALR, sequence (P55789 whole entry): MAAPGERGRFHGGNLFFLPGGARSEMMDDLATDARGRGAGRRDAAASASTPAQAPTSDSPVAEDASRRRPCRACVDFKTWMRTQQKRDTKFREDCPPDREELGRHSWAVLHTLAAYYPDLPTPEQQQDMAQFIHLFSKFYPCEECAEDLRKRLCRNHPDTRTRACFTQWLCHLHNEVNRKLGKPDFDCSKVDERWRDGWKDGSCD
T2 sequence (P49327 whole entry): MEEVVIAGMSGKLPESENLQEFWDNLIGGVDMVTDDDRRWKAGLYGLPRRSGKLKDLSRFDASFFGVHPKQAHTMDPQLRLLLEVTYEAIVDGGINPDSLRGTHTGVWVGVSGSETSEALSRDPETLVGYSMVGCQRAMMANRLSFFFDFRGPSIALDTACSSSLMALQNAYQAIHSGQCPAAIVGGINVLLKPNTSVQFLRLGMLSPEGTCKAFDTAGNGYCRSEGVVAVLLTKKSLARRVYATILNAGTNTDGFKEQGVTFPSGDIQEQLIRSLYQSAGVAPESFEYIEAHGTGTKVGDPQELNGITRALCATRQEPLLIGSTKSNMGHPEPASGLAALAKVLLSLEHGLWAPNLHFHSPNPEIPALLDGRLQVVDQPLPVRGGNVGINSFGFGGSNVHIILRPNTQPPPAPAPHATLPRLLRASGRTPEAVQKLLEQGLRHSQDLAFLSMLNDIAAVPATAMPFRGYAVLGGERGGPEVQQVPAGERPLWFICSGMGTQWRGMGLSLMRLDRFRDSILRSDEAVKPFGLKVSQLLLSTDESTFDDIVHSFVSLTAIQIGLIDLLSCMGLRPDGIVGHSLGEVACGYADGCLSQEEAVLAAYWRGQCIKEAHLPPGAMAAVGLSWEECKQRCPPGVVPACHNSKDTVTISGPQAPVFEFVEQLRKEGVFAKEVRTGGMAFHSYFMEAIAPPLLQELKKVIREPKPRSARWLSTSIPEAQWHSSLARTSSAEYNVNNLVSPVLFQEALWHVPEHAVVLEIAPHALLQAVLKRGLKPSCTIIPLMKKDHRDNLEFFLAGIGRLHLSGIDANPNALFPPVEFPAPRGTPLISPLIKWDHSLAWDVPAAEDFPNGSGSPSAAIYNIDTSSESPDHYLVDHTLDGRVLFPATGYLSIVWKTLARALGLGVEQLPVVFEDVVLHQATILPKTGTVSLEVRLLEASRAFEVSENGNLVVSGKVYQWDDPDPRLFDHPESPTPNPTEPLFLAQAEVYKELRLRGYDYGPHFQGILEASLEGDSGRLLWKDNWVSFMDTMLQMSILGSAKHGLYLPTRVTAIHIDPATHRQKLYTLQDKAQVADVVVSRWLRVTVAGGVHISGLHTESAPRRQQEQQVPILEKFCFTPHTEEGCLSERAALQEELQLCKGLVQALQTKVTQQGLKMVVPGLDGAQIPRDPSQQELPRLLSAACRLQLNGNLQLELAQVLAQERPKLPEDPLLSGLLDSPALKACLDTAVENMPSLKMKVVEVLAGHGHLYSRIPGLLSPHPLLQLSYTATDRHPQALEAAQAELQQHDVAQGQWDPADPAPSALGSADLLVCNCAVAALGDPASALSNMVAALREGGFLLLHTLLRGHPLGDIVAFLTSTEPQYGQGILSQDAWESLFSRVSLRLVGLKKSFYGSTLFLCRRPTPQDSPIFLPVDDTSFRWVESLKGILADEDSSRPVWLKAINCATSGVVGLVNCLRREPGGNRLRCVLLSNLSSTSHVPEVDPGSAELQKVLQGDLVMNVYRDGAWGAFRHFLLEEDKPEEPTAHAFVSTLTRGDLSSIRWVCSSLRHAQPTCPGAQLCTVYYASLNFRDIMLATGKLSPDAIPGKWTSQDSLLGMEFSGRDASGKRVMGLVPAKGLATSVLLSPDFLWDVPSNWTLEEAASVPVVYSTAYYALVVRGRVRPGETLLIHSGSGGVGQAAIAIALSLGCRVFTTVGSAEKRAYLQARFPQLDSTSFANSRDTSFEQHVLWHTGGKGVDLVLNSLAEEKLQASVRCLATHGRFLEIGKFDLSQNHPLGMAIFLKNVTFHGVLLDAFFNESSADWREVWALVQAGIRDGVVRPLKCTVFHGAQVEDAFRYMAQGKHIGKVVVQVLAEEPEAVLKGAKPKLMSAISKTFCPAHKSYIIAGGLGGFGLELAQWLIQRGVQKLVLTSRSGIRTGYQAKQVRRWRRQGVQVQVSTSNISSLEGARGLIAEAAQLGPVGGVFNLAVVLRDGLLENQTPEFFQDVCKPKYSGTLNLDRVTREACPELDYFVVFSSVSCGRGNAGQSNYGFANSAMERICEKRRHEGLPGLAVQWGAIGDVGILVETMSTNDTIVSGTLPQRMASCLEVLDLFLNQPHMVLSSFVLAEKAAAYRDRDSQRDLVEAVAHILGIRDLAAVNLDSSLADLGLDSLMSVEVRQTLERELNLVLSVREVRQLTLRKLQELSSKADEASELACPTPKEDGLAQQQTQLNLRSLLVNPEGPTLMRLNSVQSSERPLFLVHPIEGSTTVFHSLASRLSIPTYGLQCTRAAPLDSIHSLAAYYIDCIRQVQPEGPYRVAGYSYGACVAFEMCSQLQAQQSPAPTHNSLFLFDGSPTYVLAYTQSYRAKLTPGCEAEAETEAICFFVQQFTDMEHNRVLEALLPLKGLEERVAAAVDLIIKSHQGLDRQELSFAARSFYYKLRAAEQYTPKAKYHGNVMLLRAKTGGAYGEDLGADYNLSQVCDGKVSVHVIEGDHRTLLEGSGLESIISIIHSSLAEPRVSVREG
Luciferin 4-monooxygenase, sequence (P08659 whole entry): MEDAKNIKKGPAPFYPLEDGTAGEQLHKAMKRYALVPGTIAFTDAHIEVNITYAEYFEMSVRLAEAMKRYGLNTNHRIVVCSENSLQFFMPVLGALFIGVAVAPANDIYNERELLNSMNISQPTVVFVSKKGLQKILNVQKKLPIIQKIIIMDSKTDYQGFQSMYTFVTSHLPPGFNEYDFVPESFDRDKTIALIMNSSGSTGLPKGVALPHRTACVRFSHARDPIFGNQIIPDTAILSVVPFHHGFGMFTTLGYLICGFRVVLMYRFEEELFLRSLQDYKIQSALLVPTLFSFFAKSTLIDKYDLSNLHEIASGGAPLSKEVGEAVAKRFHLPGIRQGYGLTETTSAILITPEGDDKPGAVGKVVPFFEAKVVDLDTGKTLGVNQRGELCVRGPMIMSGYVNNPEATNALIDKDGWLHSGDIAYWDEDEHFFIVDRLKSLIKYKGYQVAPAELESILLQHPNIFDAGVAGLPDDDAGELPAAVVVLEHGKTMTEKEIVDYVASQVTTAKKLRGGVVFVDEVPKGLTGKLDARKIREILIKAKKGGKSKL

Cc1ccccc1NC(=O)Cn1c(=O)n(Cc2ccccc2)c(=O)c2c(C)c(C)sc21
IC50 [1]: 15 µM (not active)

CCc1c(C)nc2cc(-c3ccc(OC)c(OC)c3)nn2c1NCC1CC1
AC50 [2]: 5.11 µM (active)
AC50 [3]: 5.44 µM (active)
CC50 [4]: 13.7 µM (active)

Cc1c(C(=O)N2CCOCC2)sc(NC(=O)CCl)c1C#N
CC50 (Vero): 22.3 µM (active)

CCCOc1cccc(-c2cc(C(=O)NN=C(S)NCC)c3ccccc3n2)c1
EC50 [5]: > 38 µM (not active)
EC50 [6]: > 160 µM (inactive)
EC50 [7]: 1.41 µM (active)
EC50 [8]: > 112 µM (not active)

Cc1nc(Nc2ccccc2Cl)sc1C(=O)Nc1ccccc1
EC50 [5]: > 38 µM (not active)
EC50 [6]: 28.6 µM (active)

CN(C(=O)COC(=O)c1cc([N+](=O)[O-])ccc1Cl)c1ccccc1
IC50 (Fatty acid synthase [9]): 9.59 µM (active)
IC50 (Fatty acid synthase [10]): 7 µM (active)

CN(Cc1ccccc1)S(=O)(=O)c1ccc(C(=O)Nc2nnc(C3CC3)o2)cc1
EC50 [5]: 1.76 µM (active)
EC50 [6]: > 160 µM (inactive)

COc1cccc(N2CCN(CC(=O)NCc3cccs3)CC2)c1
AC50 [11]: 4.1 µM (active)

CCn1cnc2c1c(=O)n(CC(=O)Nc1ccc3c(c1)OC(F)(F)O3)c(=O)n2Cc1ccccc1
IC50 [1]: < 0.4 µM (not active)

O=C(/C=C/c1cc([N+](=O)[O-])ccc1OC(F)F)NCc1ccc(F)cc1
IC50 (Fatty acid synthase [9]): 1.33 µM (active)
IC50 (Fatty acid synthase [10]): 0.999 µM (active)

O=C(Nc1cnc2sccn2c1=O)c1ccccc1Cl
EC50 [12]: 0.199 µM (active)
EC50 (H4): > 120 µM (not active)

CC(C)C[C@H](NC(=O)c1[nH]cnc1C(=O)NCCCCCNC(=O)OC(C)(C)C)C(=O)OC(C)(C)C
IC50 [1]: 26.6 µM (not active)

Cc1ccccc1NC(=O)Cc1nc(CCl)cs1
AC50 [11]: 10.8 µM (active)

O=C(CCNC(=O)c1ccc([N+](=O)[O-])cc1)NCCC1=CCCCC1
IC50 (Fatty acid synthase [9]): 3.75 µM (active)
IC50 (Fatty acid synthase [10]): 3.4 µM (active)

CC(C)Cn1c(N)c(C(=O)COC(=O)c2ccc(Cl)cc2)c(=O)n(C)c1=O
IC50 [1]: 2.21 µM (active)

Cc1ccccc1NC(=O)CN(C)S(=O)(=O)c1ccc(-c2ccc(O)nn2)s1
EC50 (cells [13]): > 350 µM (not active)
EC50 (cells [14]): > 350 µM (not active)

COc1ccc(NCc2nc3ccccc3n2C)cc1
AC50 [11]: 3.46 µM (active)

c1ccc(OCc2nc(-c3ccncc3)no2)cc1
EC50 (cells [13]): > 350 µM (not active)
EC50 (cells [14]): > 350 µM (not active)

COc1ccccc1NC(=O)COC(=O)C12CC3CC(CC(Cl)(C3)C1)C2
IC50 [1]: 13 µM (not active)

CCCCCCCC1CC(=O)C=C(C)C1C(=O)OCC (centres undefined)
EC50 (cells [13]): > 350 µM (not active)
EC50 (cells [14]): > 350 µM (not active)

CC(C)NC(=O)COC(=O)c1cccc(NS(=O)(=O)/C=C/c2ccccc2)c1
EC50 [6]: > 160 µM (inactive)

COc1cc(CNc2ncc(-c3ccc(Cl)cc3)n2C)cc(OC)c1OC
AC50 [11]: 4.59 µM (active)

C=CCOc1ccc(CN(C)CC(O)COc2cccc3ccccc23)cc1 (centres undefined)
CC50 [4]: 26.1 µM (active)

O=C(NCc1ccc2c(c1)OCO2)c1ccc2c(c1)N(Cc1c(F)cccc1Cl)C(=O)CS2
IC50 (Fatty acid synthase [9]): 10.3 µM (active)
IC50 (Fatty acid synthase [10]): 6.15 µM (active)
